From ChEMBL document CHEMBL4014279, “Synthesis of novel pyrazolo[3,4-b]quinolinyl acetamide analogs, their evaluation for antimicrobial and anticancer activities, validation by molecular modeling and CoMFA analysis” (Eur J Med Chem, 2017)
Values after ≈ are worked out from the molar mass of the structure shown. Active and inactive are the calls of the source. The calls are words filed in the database; no cut-off is given here.

Experiments:
[1] = test system: Raoultella planticola; experiment: Antibacterial activity against Klebsiella planticola MTCC 530 after 24 hrs by well diffusion method; assay type: functional; details: MTCC 530, 24 h
[2] = test system: COLO 205; experiment: Cytotoxicity against human COLO205 cells after 24 hrs by MTT assay; assay type: functional, cell-based; details: COLO 205, 24 h
[3] = test system: HeLa; experiment: Cytotoxicity against human HeLa cells after 24 hrs by MTT assay; assay type: functional, cell-based
[4] = test system: Staphylococcus aureus; experiment: Antibacterial activity against Staphylococcus aureus MTCC 96 after 24 hrs by well diffusion method; assay type: functional; details: MTCC 96, 24 h
[5] = test system: A549; experiment: Cytotoxicity against human A549 cells after 24 hrs by MTT assay; assay type: functional, cell-based; details: A549, 24 h
[6] = test system: Pseudomonas aeruginosa; experiment: Antibacterial activity against Pseudomonas aeruginosa MTCC 2453 after 24 hrs by well diffusion method; assay type: functional; details: MTCC 2453, 24 h
[7] = test system: Bacillus subtilis; experiment: Antibacterial activity against Bacillus subtilis MTCC 121 after 24 hrs by well diffusion method; assay type: functional; details: MTCC 121, 24 h
[8] = test system: Micrococcus luteus; experiment: Antibacterial activity against Micrococcus luteus MTCC 2470 after 24 hrs by well diffusion method; assay type: functional; details: MTCC 2470, 24 h
[9] = test system: Escherichia coli; experiment: Antibacterial activity against Escherichia coli MTCC 739 after 24 hrs by well diffusion method; assay type: functional; details: MTCC 739, 24 h
[10] = test system: HepG2; experiment: Cytotoxicity against human HepG2 cells after 24 hrs by MTT assay; assay type: functional, cell-based; details: HepG2, 24 h
[11] = test system: Staphylococcus aureus; experiment: Antibacterial activity against Staphylococcus aureus MLS16 MTCC 2940 after 24 hrs by well diffusion method; assay type: functional; details: MLS16 MTCC 2940, 24 h
[12] = test system: A549; experiment: Cytotoxicity against human A549 cells at >100 uM after 24 hrs by MTT assay; assay type: functional, cell-based
[13] = test system: HepG2; experiment: Cytotoxicity against human HepG2 cells at >100 uM after 24 hrs by MTT assay; assay type: functional, cell-based

Row | Compound | MIC [4] [µg/mL] | MIC [6] [µg/mL] | MIC [7] [µg/mL] | MIC [8] [µg/mL] | MIC [9] [µg/mL] | MIC [11] [µg/mL] | MIC [1] [µg/mL] | IC50 [2] [µM] | IC50 [3] [µM] | IC50 [5] [µM] | IC50 [10] [µM] | Activity [12] | Activity [13]
1 | CNC(=O)Cn1nc(C)c2c(C)c3ccccc3nc21 | > 125 | > 125 | 62.5 (≈ 233 µM) | 15.6 (≈ 58.1 µM) | > 125 | > 125 | > 125 | 16.3 | 18.1 | 20.2 | 17.9 |  | 
2 | Cc1c2ccccc2nc2c1c(C(F)(F)F)nn2CC(=O)NC1CC1 | 7.8 to 125 (≈ 22.4 to 359 µM) | 7.8 to 125 (≈ 22.4 to 359 µM) | 7.8 to 125 (≈ 22.4 to 359 µM) | 7.8 to 125 (≈ 22.4 to 359 µM) | 7.8 to 125 (≈ 22.4 to 359 µM) | 7.8 to 125 (≈ 22.4 to 359 µM) | 7.8 to 125 (≈ 22.4 to 359 µM) | 22.7 | 21 | 19.2 | 18.6 |  | 
3 | CCNC(=O)Cn1nc(C(F)(F)F)c2c(C)c3ccccc3nc21 | 7.8 to 125 (≈ 23.2 to 372 µM) | 7.8 to 125 (≈ 23.2 to 372 µM) | 7.8 to 125 (≈ 23.2 to 372 µM) | 7.8 to 125 (≈ 23.2 to 372 µM) | 7.8 to 125 (≈ 23.2 to 372 µM) | 7.8 to 125 (≈ 23.2 to 372 µM) | 7.8 to 125 (≈ 23.2 to 372 µM) | 16.4 | 19.2 | 22.8 | 20.8 |  | 
4 | Cc1nn(CC(=O)NCc2ccco2)c2nc3ccccc3c(C)c12 | 7.8 to 125 (≈ 23.3 to 374 µM) | 7.8 to 125 (≈ 23.3 to 374 µM) | 7.8 to 125 (≈ 23.3 to 374 µM) | 7.8 to 125 (≈ 23.3 to 374 µM) | 7.8 to 125 (≈ 23.3 to 374 µM) | 7.8 to 125 (≈ 23.3 to 374 µM) | 7.8 to 125 (≈ 23.3 to 374 µM) | 15.6 | 14.4 | 14.9 | 13.2 |  | 
5 | Cc1c2ccccc2nc2c1c(C(F)(F)F)nn2CC(=O)Nc1ccc([N+](=O)[O-])cc1 | 7.8 to 125 (≈ 18.2 to 291 µM) | 7.8 to 125 (≈ 18.2 to 291 µM) | 7.8 to 125 (≈ 18.2 to 291 µM) | 7.8 to 125 (≈ 18.2 to 291 µM) | 7.8 to 125 (≈ 18.2 to 291 µM) | 7.8 to 125 (≈ 18.2 to 291 µM) | 7.8 to 125 (≈ 18.2 to 291 µM) | 36.2 | 38.9 |  |  | inactive | inactive
6 | Cc1c2ccccc2nc2c1c(C(F)(F)F)nn2CC(=O)N1CCCCC1 | 7.8 to 125 (≈ 20.7 to 332 µM) | 7.8 to 125 (≈ 20.7 to 332 µM) | 7.8 to 125 (≈ 20.7 to 332 µM) | 7.8 to 125 (≈ 20.7 to 332 µM) | 7.8 to 125 (≈ 20.7 to 332 µM) | 7.8 to 125 (≈ 20.7 to 332 µM) | 7.8 to 125 (≈ 20.7 to 332 µM) | 25.4 | 33.9 | 32.5 | 36.6 |  | 
7 | O=C(Cn1nc(C(F)(F)F)c2c(-c3ccccc3)c3ccccc3nc21)NCc1ccco1 | 7.8 to 125 (≈ 17.3 to 278 µM) | 7.8 to 125 (≈ 17.3 to 278 µM) | 7.8 to 125 (≈ 17.3 to 278 µM) | 7.8 to 125 (≈ 17.3 to 278 µM) | 7.8 to 125 (≈ 17.3 to 278 µM) | 7.8 to 125 (≈ 17.3 to 278 µM) | 7.8 to 125 (≈ 17.3 to 278 µM) | 28.1 | 27.2 | 22.4 | 26.8 |  | 

Second part, led by results:

Row | MIC [4] [µg/mL] | MIC [6] [µg/mL] | MIC [7] [µg/mL] | MIC [8] [µg/mL] | MIC [9] [µg/mL] | MIC [11] [µg/mL] | Compound | MIC [1] [µg/mL] | IC50 [2] [µM] | IC50 [3] [µM] | IC50 [5] [µM] | IC50 [10] [µM] | Activity [12] | Activity [13]
8 | 7.8 to 125 (≈ 23.2 to 372 µM) | 7.8 to 125 (≈ 23.2 to 372 µM) | 7.8 to 125 (≈ 23.2 to 372 µM) | 7.8 to 125 (≈ 23.2 to 372 µM) | 7.8 to 125 (≈ 23.2 to 372 µM) | 7.8 to 125 (≈ 23.2 to 372 µM) | Cc1nn(CC(=O)NC2CCCCC2)c2nc3ccccc3c(C)c12 | 7.8 to 125 (≈ 23.2 to 372 µM) | 20.1 | 14.2 | 12.6 | 10.8 |  | 
9 | 7.8 to 125 (≈ 18.9 to 303 µM) | 7.8 to 125 (≈ 18.9 to 303 µM) | 7.8 to 125 (≈ 18.9 to 303 µM) | 7.8 to 125 (≈ 18.9 to 303 µM) | 7.8 to 125 (≈ 18.9 to 303 µM) | 7.8 to 125 (≈ 18.9 to 303 µM) | CCCNC(=O)Cn1nc(C(F)(F)F)c2c(-c3ccccc3)c3ccccc3nc21 | 7.8 to 125 (≈ 18.9 to 303 µM) | 22.1 | 23.7 | 25.6 | 23.4 |  | 
10 | 7.8 to 125 (≈ 20 to 320 µM) | 7.8 to 125 (≈ 20 to 320 µM) | 7.8 to 125 (≈ 20 to 320 µM) | 7.8 to 125 (≈ 20 to 320 µM) | 7.8 to 125 (≈ 20 to 320 µM) | 7.8 to 125 (≈ 20 to 320 µM) | Cc1c2ccccc2nc2c1c(C(F)(F)F)nn2CC(=O)NC1CCCCC1 | 7.8 to 125 (≈ 20 to 320 µM) | 24.5 | 23.4 | 28.2 | 29.6 |  | 
11 | 7.8 to 125 (≈ 26.5 to 425 µM) | 7.8 to 125 (≈ 26.5 to 425 µM) | 7.8 to 125 (≈ 26.5 to 425 µM) | 7.8 to 125 (≈ 26.5 to 425 µM) | 7.8 to 125 (≈ 26.5 to 425 µM) | 7.8 to 125 (≈ 26.5 to 425 µM) | Cc1nn(CC(=O)NC2CC2)c2nc3ccccc3c(C)c12 | 7.8 to 125 (≈ 26.5 to 425 µM) | 11.9 | 16.7 | 14.3 | 15.2 |  | 
12 | 7.8 to 125 (≈ 24.2 to 388 µM) | 7.8 to 125 (≈ 24.2 to 388 µM) | 7.8 to 125 (≈ 24.2 to 388 µM) | 7.8 to 125 (≈ 24.2 to 388 µM) | 7.8 to 125 (≈ 24.2 to 388 µM) | 7.8 to 125 (≈ 24.2 to 388 µM) | CNC(=O)Cn1nc(C(F)(F)F)c2c(C)c3ccccc3nc21 | 7.8 to 125 (≈ 24.2 to 388 µM) | 12.8 | 17.2 | 11.3 | 18.9 |  | 
13 | 7.8 to 125 (≈ 21.6 to 347 µM) | 7.8 to 125 (≈ 21.6 to 347 µM) | 7.8 to 125 (≈ 21.6 to 347 µM) | 7.8 to 125 (≈ 21.6 to 347 µM) | 7.8 to 125 (≈ 21.6 to 347 µM) | 7.8 to 125 (≈ 21.6 to 347 µM) | COc1ccc(NC(=O)Cn2nc(C)c3c(C)c4ccccc4nc32)cc1 | 7.8 to 125 (≈ 21.6 to 347 µM) | 18.9 | 20.4 | 25.6 | 22.2 |  | 
14 | 7.8 to 125 (≈ 17.8 to 285 µM) | 7.8 to 125 (≈ 17.8 to 285 µM) | 7.8 to 125 (≈ 17.8 to 285 µM) | 7.8 to 125 (≈ 17.8 to 285 µM) | 7.8 to 125 (≈ 17.8 to 285 µM) | 7.8 to 125 (≈ 17.8 to 285 µM) | O=C(Cn1nc(C(F)(F)F)c2c(-c3ccccc3)c3ccccc3nc21)N1CCCCC1 | 7.8 to 125 (≈ 17.8 to 285 µM) | 19.3 | 29.2 | 25.6 | 30.2 |  | 
